Results from ChEMBL document CHEMBL1201862, “PubChem BioAssay data set” (2004).
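How tested: cells in 96-well plates exposed to compound for 48 hours at five concentrations. Abbreviation: GI50, concentration required for 50% inhibition of growth.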 Active and inactive are the calls of the source. Rule as the data show it: active = GI50 up to about 1.1 µM and inactive = higher.

Key:
Experiment in all cases: inhibition of tumour cell growth, NCI panel, 48 h
[1] = tested on: NCI-H226
[2] = tested on: ACHN
[3] = tested on: HT-29
[4] = tested on: MCF7
[5] = tested on: MDA-MB-435
[6] = tested on: CCRF-CEM
[7] = tested on: NCI-H23
[8] = tested on: A498
[9] = tested on: SR
[10] = tested on: RPMI-8226
[11] = tested on: MDA-MB-231
[12] = tested on: NCI-H522
[13] = tested on: 786-0
[14] = tested on: UACC-62
[15] = tested on: SN12C
[16] = tested on: KM12
[17] = tested on: CAKI-1
[18] = tested on: MDA-N
[19] = tested on: RXF 393
[20] = tested on: TK-10
[21] = tested on: DU-145
[22] = tested on: HCT-116
[23] = tested on: IGROV-1
[24] = tested on: OVCAR-3
[25] = tested on: SK-MEL-28
[26] = tested on: SNB-75
[27] = tested on: EKVX
[28] = tested on: T47D
[29] = tested on: COLO 205
[30] = tested on: MOLT-4
[31] = tested on: OVCAR-4
[32] = tested on: A549
[33] = tested on: SK-MEL-5
[34] = tested on: SF-539
[35] = tested on: UO-31
[36] = tested on: SF-295
[37] = tested on: SW-620
[38] = tested on: HOP-92
[39] = tested on: Malme-3M
[40] = tested on: HOP-62
[41] = tested on: PC-3
[42] = tested on: K562
[43] = tested on: HCC 2998
[44] = tested on: OVCAR-8
[45] = tested on: BT-549
[46] = tested on: OVCAR-5
[47] = tested on: SK-MEL-2
[48] = tested on: M14
[49] = tested on: UACC-257
[50] = tested on: NCI-H460
[51] = tested on: U-251
[52] = tested on: HCT-15
[53] = tested on: SF-268
[54] = tested on: NCI/ADR-RES
[55] = tested on: LOX IMVI
[56] = tested on: SK-OV-3
[57] = tested on: SNB-19

With `N#CC1=C2SCCN2C(=O)C(C#N)C12CCCCC2` (configuration not stated) the GI50 [1] was > 100 µM (inactive), the GI50 [2] was > 100 µM (inactive) and the GI50 [3] was > 100 µM (inactive). For the same compound, the GI50 [4] was > 100 µM (inactive), the GI50 [5] was > 100 µM (inactive) and the GI50 [6] was > 100 µM (inactive). The GI50 [7] was > 100 µM (inactive), the GI50 [8] was > 100 µM (inactive) and the GI50 [9] was > 100 µM (inactive). For the same compound, the GI50 [10] was > 100 µM (inactive), the GI50 [11] was > 100 µM (inactive) and the GI50 [12] was > 100 µM (inactive). The GI50 [13] was > 100 µM (inactive), the GI50 [14] was > 100 µM (inactive) and the GI50 [15] was > 100 µM (inactive). For the same compound, the GI50 [16] was > 100 µM (inactive), the GI50 [17] was > 100 µM (inactive) and the GI50 [18] was > 100 µM (inactive). The GI50 [19] was 59.4 µM (inactive), the GI50 [20] was > 100 µM (inactive) and the GI50 [21] was > 100 µM (inactive). For the same compound, the GI50 [22] was > 100 µM (inactive), the GI50 [23] was > 100 µM (inactive) and the GI50 [24] was > 100 µM (inactive). The GI50 [25] was > 100 µM (inactive), the GI50 [26] was > 100 µM (inactive) and the GI50 [27] was > 100 µM (inactive). The GI50 [28] was > 100 µM (inactive), the GI50 [29] was > 100 µM (inactive) and the GI50 [30] was > 100 µM (inactive). The GI50 [31] was > 100 µM (inactive), the GI50 [32] was > 100 µM (inactive) and the GI50 [33] was > 100 µM (inactive). The GI50 [34] was > 100 µM (inactive), the GI50 [35] was > 100 µM (inactive) and the GI50 [36] was > 100 µM (inactive). The GI50 [37] was > 100 µM (inactive), the GI50 [38] was > 100 µM (inactive) and the GI50 [39] was > 100 µM (inactive). For the same compound, the GI50 [40] was > 100 µM (inactive), the GI50 [41] was > 100 µM (inactive) and the GI50 [42] was > 100 µM (inactive). The GI50 [43] was > 100 µM (inactive), the GI50 [44] was > 100 µM (inactive) and the GI50 [45] was > 100 µM (inactive). For the same compound, the GI50 [46] was > 100 µM (inactive), the GI50 [47] was > 100 µM (inactive) and the GI50 [48] was > 100 µM (inactive). For the same compound, the GI50 [49] was > 100 µM (inactive), the GI50 [50] was > 100 µM (inactive) and the GI50 [51] was > 100 µM (inactive). For the same compound, the GI50 [52] was over 100 µM, the GI50 [53] was > 100 µM (inactive) and the GI50 [54] was > 100 µM (inactive). For the same compound, the GI50 [55] was > 100 µM (inactive), the GI50 [56] was > 100 µM (inactive) and the GI50 [57] was > 100 µM (inactive).
